Source: US10143666B2, “Small molecule inhibitors targeting CAG-repeat RNA toxicity in polyglutamine diseases” (The Chinese University of Hong Kong, priority 2015, dated 2018)

System: EGFPCAG78 RNA expressing SK-N-MC cells
Assay: LDH cytotoxicity assay, EGFPCAG78 RNA expressing SK-N-MC cells
Type: cell-based, human
Conditions: 72 hours post-transfection and treatment
Protocol: It was next investigated whether DB213 could mitigate expanded CAG-repeat RNA-mediated toxicity in SK-N-MC human neuronal cell. […] Taken together, DB213 could suppress the expanded CAG RNA-mediated but not polyQ protein-mediate toxicity in human neuronal cell.
SK-N-MC human neuronal cells were seeded on a 24-well plate and lactate dehydrogenase enzyme activity in the cell culture medium was measured 72 hours post-transfection and drugs treatment using the Cytotox 96 non-radioactive cytotoxicity assay (Promega).

Question: Which “Cell death induced by EGFPCAG78 RNA (LDH assay)” value does the source give for `CN(C)CCNC(=N)c1ccc(C(=N)NCCN(C)C)cc1.Cl.Cl.Cl.Cl` [DB213_D1] here?
Answer: The value was “did not rescue the cell death”.
